Values of other authors in US9745365B2, “Anti-influenza B virus hemagglutinin antibodies and methods of use” (priority 2014, dated 2017).

Target: influenza B neuraminidase (Influenza B virus, UniProt P03474)
Conditions: higher

influenza B neuraminidase, sequence (P03474 whole entry): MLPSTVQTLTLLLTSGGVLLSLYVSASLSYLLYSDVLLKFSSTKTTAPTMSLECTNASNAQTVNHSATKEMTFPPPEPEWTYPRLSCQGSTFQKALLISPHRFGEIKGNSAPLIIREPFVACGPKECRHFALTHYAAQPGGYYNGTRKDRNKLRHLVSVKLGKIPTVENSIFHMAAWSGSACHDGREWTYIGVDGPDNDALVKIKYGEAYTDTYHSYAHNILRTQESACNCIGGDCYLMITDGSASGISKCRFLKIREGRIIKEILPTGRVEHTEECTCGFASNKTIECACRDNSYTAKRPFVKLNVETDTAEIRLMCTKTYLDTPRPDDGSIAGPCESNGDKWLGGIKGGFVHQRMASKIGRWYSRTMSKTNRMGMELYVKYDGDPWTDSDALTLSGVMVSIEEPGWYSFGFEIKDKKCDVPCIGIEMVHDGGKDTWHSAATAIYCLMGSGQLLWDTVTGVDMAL

CCOC(=O)C1=C[C@@H](OC(CC)CC)[C@H](NC(C)=O)[C@@H](N)C1 [oseltamivir phosphate]
IC50 for influenza B neuraminidase compared to that for influenza A neuraminidase: 10 fold
